Assay: Biodegradability

SMILES: Cl.NC(N)=O [urea hydrochloride, Urea Hydrochloride]
- Biodegradability: maintain the same biodegradability function
